Test results taken from US20250353891A1 (MEDIMMUNE LIMITED, priority 2022, published 2025).
Starred links: 1 amine or outer side, 2 acyl side, 3 side chain; linkers in the order of their positions; H or OH if unused. Non-standard residues stand in square brackets, D forms with d. Residues, ends and D or L forms follow the SMILES beside them. Groups on a side chain read outwards from the residue. *: point of attachment. C20 diacid = O=C(O)CCCCCCCCCCCCCCCCCCC(=O)*; C18 diacid = O=C(O)CCCCCCCCCCCCCCCCC(=O)*; γGlu = O=C(O)[C@H](CCC(=O)[*:2])N[*:1]; αMeF = C[C@](N)(Cc1ccccc1)C(=O)O; AEEA = NCCOCCOCC(=O)O; Aib = CC(C)(N)C(=O)O

What was measured:
[1] = biological target: human GLP-1 receptor (hGLP-1R) (Homo sapiens, UniProt P43220); assay: cAMP production (HTRF) in CHO cells expressing hGLP-1R; type: cell-based; parameters: expressed in transfected cells; settings: for EC50: Table 6, peptides modified at position 17, cAMP in CHO hGLP-1R cells, geometric mean, read-out: hGLP-1R EC50; for % Relative Potency Ratio: Table 6, % GLP-1R activity relative to GLP-1 / % GlucR activity relative to glucagon
Chain of human GLP-1 receptor (hGLP-1R) (P43220 24-463): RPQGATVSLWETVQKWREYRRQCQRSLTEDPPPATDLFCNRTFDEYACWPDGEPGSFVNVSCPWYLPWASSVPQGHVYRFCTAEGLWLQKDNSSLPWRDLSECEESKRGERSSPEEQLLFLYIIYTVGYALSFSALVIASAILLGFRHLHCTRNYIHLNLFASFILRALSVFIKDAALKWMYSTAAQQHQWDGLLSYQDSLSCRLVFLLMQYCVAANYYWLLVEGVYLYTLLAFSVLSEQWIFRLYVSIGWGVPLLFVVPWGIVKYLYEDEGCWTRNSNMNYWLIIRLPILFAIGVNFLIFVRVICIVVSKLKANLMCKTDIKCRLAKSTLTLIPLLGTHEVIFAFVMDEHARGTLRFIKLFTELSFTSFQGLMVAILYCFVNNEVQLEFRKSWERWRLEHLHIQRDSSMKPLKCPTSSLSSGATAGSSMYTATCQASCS
Procedure, shortened: (§1)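 Potency values represent EC50 from 4-parameter logistic curves of HTRF % Delta F signal. Receptor-expressing CHO cells (hGCGR 2×10^5 cells/mL, hGLP-1R 1×10^5 cells/mL) were exposed for 30 min at room temperature before two-step cAMP detection.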

[2] = biological target: human glucagon receptor (hGCGR) (Homo sapiens, UniProt P47871); assay: cAMP production (HTRF) in CHO cells expressing hGCGR; type: cell-based; parameters: expressed in transfected cells; settings: Table 6, peptides modified at position 17; cAMP in CHO hGCGR cells; geometric mean; read-out: hGluc-R EC50
Chain of human glucagon receptor (hGCGR) (P47871 26-477): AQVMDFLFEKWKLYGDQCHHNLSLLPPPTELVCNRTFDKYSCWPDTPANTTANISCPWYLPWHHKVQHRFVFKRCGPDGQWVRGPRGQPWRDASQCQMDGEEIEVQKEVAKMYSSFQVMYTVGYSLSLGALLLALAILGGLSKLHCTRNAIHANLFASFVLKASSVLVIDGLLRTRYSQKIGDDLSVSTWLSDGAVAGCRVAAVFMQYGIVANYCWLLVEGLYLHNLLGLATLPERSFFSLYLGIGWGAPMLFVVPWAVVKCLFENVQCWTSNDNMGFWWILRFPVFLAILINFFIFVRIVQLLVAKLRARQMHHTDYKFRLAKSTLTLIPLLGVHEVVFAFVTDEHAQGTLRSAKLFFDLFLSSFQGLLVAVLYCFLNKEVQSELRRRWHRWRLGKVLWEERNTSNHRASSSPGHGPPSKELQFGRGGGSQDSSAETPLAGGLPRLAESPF
Procedure, shortened: as §1

Compound	EC50 [1] [nM]	% Relative Potency Ratio [1]	EC50 [2] [nM]
CC(C)C[C@H](NC(=O)[C@H](Cc1c[nH]c2ccccc12)NC(=O)[C@H](CCCNC(=N)N)NC(=O)[C@@H](NC(=O)[C@H](Cc1ccccc1)NC(=O)[C@H](CC(=O)O)NC(=O)[C@H](CCCNC(=N)N)NC(=O)[C@H](C)NC(=O)[C@H](CCCNC(=N)N)NC(=O)[C@H](CCCCNC(=O)COCCOCCNC(=O)COCCOCCNC(=O)CC[C@H](NC(=O)CCCCCCCCCCCCCCCCCCC(=O)O)C(=O)O)NC(=O)[C@@H](NC(=O)[C@H](CC(=O)O)NC(=O)[C@H](CC(C)C)NC(=O)[C@](C)(Cc1ccccc1)NC(=O)[C@H](CCCCN)NC(=O)[C@H](CO)NC(=O)[C@@H](NC(=O)[C@H](CC(=O)O)NC(=O)[C@H](CO)NC(=O)[C@@H](NC(=O)[C@H](Cc1ccccc1)NC(=O)[C@@H](NC(=O)CNC(=O)[C@H](CCC(N)=O)NC(=O)C(C)(C)NC(=O)[C@@H](N)Cc1c[nH]cn1)[C@@H](C)O)[C@@H](C)O)C(C)C)[C@@H](C)O)C(C)C)C(=O)N[C@@H](CC(C)C)C(=O)NC(C)(C)C(=O)N[C@@H](CCC(=O)O)C(N)=O [Peptide 511] (H-H[Aib]QGTFTSDVSK[αMeF]LDTK([AEEA-AEEA-γGlu-C20 diacid])RARDFVRWLL[Aib]E-NH2; N-terminus assumed)	0.118	2.4	0.14
CC(C)C[C@H](NC(=O)[C@H](CC(C)C)NC(=O)[C@H](Cc1c[nH]c2ccccc12)NC(=O)[C@H](CCCNC(=N)N)NC(=O)[C@@H](NC(=O)[C@](C)(Cc1ccccc1)NC(=O)[C@H](CC(=O)O)NC(=O)[C@H](CCC(N)=O)NC(=O)[C@H](C)NC(=O)[C@H](CCCNC(=N)N)NC(=O)[C@H](CCCCNC(=O)COCCOCCNC(=O)COCCOCCNC(=O)CC[C@H](NC(=O)CCCCCCCCCCCCCCCCC(=O)O)C(=O)O)NC(=O)[C@@H](NC(=O)[C@H](CC(=O)O)NC(=O)[C@H](CC(C)C)NC(=O)[C@](C)(Cc1ccccc1)NC(=O)[C@H](CCCCN)NC(=O)[C@H](CO)NC(=O)[C@@H](NC(=O)[C@H](CC(=O)O)NC(=O)[C@H](CO)NC(=O)[C@@H](NC(=O)[C@](C)(Cc1ccccc1)NC(=O)[C@@H](NC(=O)CNC(=O)[C@H](CCC(N)=O)NC(=O)C(C)(C)NC(=O)[C@@H](N)Cc1c[nH]cn1)[C@@H](C)O)[C@@H](C)O)C(C)C)[C@@H](C)O)C(C)C)C(=O)N[C@@H](C)C(=O)NC(C)(C)C(=O)NCC(N)=O [Peptide 512] (H-H[Aib]QGT[αMeF]TSDVSK[αMeF]LDTK([AEEA-AEEA-γGlu-C18 diacid])RAQD[αMeF]VRWLLA[Aib]G-NH2; N-terminus assumed)	0.159	28.7	2.31
CC(C)C[C@H](NC(=O)[C@H](CC(C)C)NC(=O)[C@H](Cc1c[nH]c2ccccc12)NC(=O)[C@H](CCC(N)=O)NC(=O)[C@@H](NC(=O)[C@](C)(Cc1ccccc1)NC(=O)[C@H](CC(=O)O)NC(=O)[C@H](CCCNC(=N)N)NC(=O)[C@H](C)NC(=O)[C@H](CCCNC(=N)N)NC(=O)[C@H](CCCCNC(=O)COCCOCCNC(=O)COCCOCCNC(=O)CC[C@H](NC(=O)CCCCCCCCCCCCCCCCC(=O)O)C(=O)O)NC(=O)[C@@H](NC(=O)[C@H](CC(=O)O)NC(=O)[C@H](CC(C)C)NC(=O)[C@](C)(Cc1ccccc1)NC(=O)[C@H](CCCCN)NC(=O)[C@H](CO)NC(=O)[C@@H](NC(=O)[C@H](CC(=O)O)NC(=O)[C@H](CO)NC(=O)[C@@H](NC(=O)[C@](C)(Cc1ccccc1)NC(=O)[C@@H](NC(=O)CNC(=O)[C@H](CCC(N)=O)NC(=O)C(C)(C)NC(=O)[C@@H](N)Cc1c[nH]cn1)[C@@H](C)O)[C@@H](C)O)C(C)C)[C@@H](C)O)C(C)C)C(=O)N[C@@H](C)C(=O)NC(C)(C)C(=O)NCC(N)=O [Peptide 513] (H-H[Aib]QGT[αMeF]TSDVSK[αMeF]LDTK([AEEA-AEEA-γGlu-C18 diacid])RARD[αMeF]VQWLLA[Aib]G-NH2)	0.0938	28.3	1.34

Continued, values first:

EC50 [1] [nM]	% Relative Potency Ratio [1]	EC50 [2] [nM]	Compound
0.594	10.1	3.02	CC(C)C[C@H](NC(=O)[C@H](Cc1c[nH]c2ccccc12)NC(=O)[C@H](CCCNC(=N)N)NC(=O)[C@@H](NC(=O)[C@H](Cc1ccccc1)NC(=O)[C@H](CC(=O)O)NC(=O)[C@H](CCC(N)=O)NC(=O)[C@H](C)NC(=O)[C@H](CCCNC(=N)N)NC(=O)[C@H](CCCCNC(=O)COCCOCCNC(=O)COCCOCCNC(=O)CC[C@H](NC(=O)CCCCCCCCCCCCCCCCCCC(=O)O)C(=O)O)NC(=O)[C@H](CO)NC(=O)[C@H](CCC(=O)O)NC(=O)[C@H](CC(C)C)NC(=O)[C@](C)(Cc1ccccc1)NC(=O)[C@H](CCCCN)NC(=O)[C@H](CO)NC(=O)[C@@H](NC(=O)[C@H](CC(=O)O)NC(=O)[C@H](CO)NC(=O)[C@@H](NC(=O)[C@H](Cc1ccccc1)NC(=O)[C@@H](NC(=O)CNC(=O)[C@H](CCC(N)=O)NC(=O)C(C)(C)NC(=O)[C@@H](N)Cc1c[nH]cn1)[C@@H](C)O)[C@@H](C)O)C(C)C)C(C)C)C(=O)N[C@@H](CC(C)C)C(=O)NC(C)(C)C(=O)N[C@H](C(=O)N[C@@H](CCC(=O)O)C(=O)O)[C@@H](C)O [Peptide 509] (H-H[Aib]QGTFTSDVSK[αMeF]LESK([AEEA-AEEA-γGlu-C20 diacid])RAQDFVRWLL[Aib]TE-OH; N-terminus assumed)
0.176	1.3	0.118	CC(C)C[C@H](NC(=O)[C@H](Cc1c[nH]c2ccccc12)NC(=O)[C@H](CCCNC(=N)N)NC(=O)[C@@H](NC(=O)[C@H](Cc1ccccc1)NC(=O)[C@H](CC(=O)O)NC(=O)[C@H](CCCNC(=N)N)NC(=O)[C@H](C)NC(=O)[C@H](CCCNC(=N)N)NC(=O)[C@H](CCCCNC(=O)COCCOCCNC(=O)COCCOCCNC(=O)CC[C@H](NC(=O)CCCCCCCCCCCCCCCCCCC(=O)O)C(=O)O)NC(=O)[C@@H](NC(=O)[C@H](CC(=O)O)NC(=O)[C@H](CC(C)C)NC(=O)[C@](C)(Cc1ccccc1)NC(=O)[C@H](CCCCN)NC(=O)[C@H](CO)NC(=O)[C@@H](NC(=O)[C@H](CC(=O)O)NC(=O)[C@H](CO)NC(=O)[C@@H](NC(=O)[C@H](Cc1ccccc1)NC(=O)[C@@H](NC(=O)CNC(=O)[C@H](CCC(N)=O)NC(=O)C(C)(C)NC(=O)[C@@H](N)Cc1c[nH]cn1)[C@@H](C)O)[C@@H](C)O)C(C)C)[C@@H](C)O)C(C)C)C(=O)N[C@@H](CC(C)C)C(=O)NC(C)(C)C(=O)N[C@@H](CCC(=O)O)C(=O)O [Peptide 510] (H-H[Aib]QGTFTSDVSK[αMeF]LDTK([AEEA-AEEA-γGlu-C20 diacid])RARDFVRWLL[Aib]E-OH; N-terminus assumed)
